Experimental data taken from US20260297085A1, “1 H-PYRROLO[2,3-B]PYRIDIN-4-YL]-2-OXOPYRROLIDINE-3-CARBONITRILE DERIVATIVES AS TYROSINE KINASE 2 (TYK2) INHIBITORS FOR THE TREATMENT OF INFLAMMATORY DISEASES” (BIOGEN MA INC., priority 2023, published 2026).
Counter-ions that a name gives are not always drawn.

Assays:
[1] = target: JAK2 kinase activity on STAT5 in TF1 cells (Homo sapiens, UniProt O60674); experiment: pSTAT5 cell assay (MSD; TF1 cells, 30 ng/mL IL-3 stimulation); assay type: cell-based; conditions: 30 ng/mL IL-3, 15 minutes
JAK2 kinase activity on STAT5 in TF1 cells, sequence (O60674 whole entry): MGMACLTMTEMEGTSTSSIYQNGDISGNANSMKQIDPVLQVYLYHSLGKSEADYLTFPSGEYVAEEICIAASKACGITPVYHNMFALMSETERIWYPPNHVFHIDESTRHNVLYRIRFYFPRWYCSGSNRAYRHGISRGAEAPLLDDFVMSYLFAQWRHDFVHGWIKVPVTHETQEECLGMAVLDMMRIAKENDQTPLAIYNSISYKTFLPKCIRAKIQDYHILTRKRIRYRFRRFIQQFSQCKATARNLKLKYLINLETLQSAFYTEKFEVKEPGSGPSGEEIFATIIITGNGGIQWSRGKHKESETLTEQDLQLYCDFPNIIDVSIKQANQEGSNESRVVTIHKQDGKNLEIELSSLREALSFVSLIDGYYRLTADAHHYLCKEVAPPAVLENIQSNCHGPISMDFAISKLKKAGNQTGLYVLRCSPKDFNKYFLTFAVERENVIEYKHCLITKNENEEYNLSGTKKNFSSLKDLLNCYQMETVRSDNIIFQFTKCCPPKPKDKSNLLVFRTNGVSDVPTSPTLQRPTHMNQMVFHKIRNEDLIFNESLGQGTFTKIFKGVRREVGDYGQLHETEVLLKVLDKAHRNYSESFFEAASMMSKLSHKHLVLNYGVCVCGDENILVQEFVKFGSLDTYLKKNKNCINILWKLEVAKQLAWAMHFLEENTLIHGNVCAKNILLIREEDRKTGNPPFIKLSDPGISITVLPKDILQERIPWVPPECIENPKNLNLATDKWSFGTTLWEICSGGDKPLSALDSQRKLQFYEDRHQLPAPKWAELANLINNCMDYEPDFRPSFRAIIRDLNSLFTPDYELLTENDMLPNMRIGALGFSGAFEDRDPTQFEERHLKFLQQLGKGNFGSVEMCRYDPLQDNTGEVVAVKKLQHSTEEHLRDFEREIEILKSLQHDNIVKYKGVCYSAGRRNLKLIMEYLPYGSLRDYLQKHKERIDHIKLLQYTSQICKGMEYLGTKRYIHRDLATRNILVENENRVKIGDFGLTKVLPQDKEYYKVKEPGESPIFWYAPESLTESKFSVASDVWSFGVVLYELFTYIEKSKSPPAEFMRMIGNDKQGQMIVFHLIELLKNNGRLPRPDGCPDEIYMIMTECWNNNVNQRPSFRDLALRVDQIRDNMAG
Method in brief: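 Serum-starved TF1 cells with native JAK2/STAT5 were pretreated 1 h with compound (10-point four-fold dilutions from 10 μM), then stimulated 15 min with 30 ng/mL IL-3. pSTAT5 in lysates quantified by MSD immunoassay; normalized percent activity fitted to a 4-parameter logistic curve for IC50.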

[2] = target: Tyk2 kinase activity on STAT4 in NK92 cells (Homo sapiens, UniProt P29597); experiment: pSTAT4 cell assay (MSD; NK92 cells, 30 ng/mL IL2 stimulation); assay type: cell-based; conditions: 30 ng/mL IL2, 15 minutes
Tyk2 kinase activity on STAT4 in NK92 cells, sequence (P29597 whole entry): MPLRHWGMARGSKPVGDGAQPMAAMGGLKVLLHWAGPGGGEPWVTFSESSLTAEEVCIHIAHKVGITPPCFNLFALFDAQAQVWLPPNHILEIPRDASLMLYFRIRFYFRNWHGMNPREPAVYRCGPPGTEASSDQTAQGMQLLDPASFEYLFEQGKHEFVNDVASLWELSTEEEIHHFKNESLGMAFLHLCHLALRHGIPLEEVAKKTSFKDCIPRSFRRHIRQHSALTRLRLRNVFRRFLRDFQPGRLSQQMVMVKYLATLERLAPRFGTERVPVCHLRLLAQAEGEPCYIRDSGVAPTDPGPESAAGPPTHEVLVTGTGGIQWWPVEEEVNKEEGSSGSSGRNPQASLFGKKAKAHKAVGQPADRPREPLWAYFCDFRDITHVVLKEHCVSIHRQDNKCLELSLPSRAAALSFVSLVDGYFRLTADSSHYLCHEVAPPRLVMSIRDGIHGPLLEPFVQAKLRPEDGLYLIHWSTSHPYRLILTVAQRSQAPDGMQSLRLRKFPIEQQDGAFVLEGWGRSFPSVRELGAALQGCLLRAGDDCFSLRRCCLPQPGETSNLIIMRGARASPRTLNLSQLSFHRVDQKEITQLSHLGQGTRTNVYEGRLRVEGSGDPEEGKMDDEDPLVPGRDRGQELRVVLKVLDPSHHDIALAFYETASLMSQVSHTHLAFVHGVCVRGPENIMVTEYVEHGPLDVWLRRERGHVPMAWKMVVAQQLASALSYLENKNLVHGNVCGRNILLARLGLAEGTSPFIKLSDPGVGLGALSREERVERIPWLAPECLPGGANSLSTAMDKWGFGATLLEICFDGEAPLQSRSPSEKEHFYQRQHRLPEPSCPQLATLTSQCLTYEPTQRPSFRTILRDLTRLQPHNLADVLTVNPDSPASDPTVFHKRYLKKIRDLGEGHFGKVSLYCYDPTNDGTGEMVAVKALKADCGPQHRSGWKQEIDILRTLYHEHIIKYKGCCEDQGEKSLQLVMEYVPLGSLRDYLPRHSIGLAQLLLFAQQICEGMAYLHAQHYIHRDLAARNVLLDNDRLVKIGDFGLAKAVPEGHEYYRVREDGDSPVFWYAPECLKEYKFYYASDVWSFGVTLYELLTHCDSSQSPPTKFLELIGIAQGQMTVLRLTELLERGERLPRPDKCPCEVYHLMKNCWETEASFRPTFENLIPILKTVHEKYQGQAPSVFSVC
Method in brief: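 Serum-starved NK92 cells, which natively express Tyk2 and STAT4, were pretreated for 1 h with a 10-point 4-fold dilution series from 10 μM. They were then stimulated with 30 ng/mL IL2 for 15 min. Phospho-STAT in lysates was quantified by MSD with anti-STAT4 antibodies, and IC50 was obtained from 4-parameter logistic fits.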

[3] = target: T1, human JAK1 kinase domain (JH1) (Homo sapiens, UniProt P23458); experiment: JH1 biochemical assay for JAK1 (ADP-Glo kinase assay, recombinant JH1 catalytic domain, JAK3-342 peptide, 35 μM ATP)
T1 construct: recombinantly generated catalytic kinase (also known as JH1) domain of human JAK1, JAK2, JAK3 and TYK2
T1 sequence (P23458 875-1153 limits assumed): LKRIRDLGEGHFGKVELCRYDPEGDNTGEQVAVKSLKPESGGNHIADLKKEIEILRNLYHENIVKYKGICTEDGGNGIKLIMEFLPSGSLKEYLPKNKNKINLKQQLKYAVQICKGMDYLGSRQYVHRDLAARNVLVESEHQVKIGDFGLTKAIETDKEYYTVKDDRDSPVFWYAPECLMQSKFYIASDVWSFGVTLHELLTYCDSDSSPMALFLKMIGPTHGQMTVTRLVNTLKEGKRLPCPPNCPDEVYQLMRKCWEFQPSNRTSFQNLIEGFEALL
Method in brief: (§1)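 Compounds were titrated in 11 points of 3-fold dilution starting at 10 μM or 1 μM. Enzyme (JAK1 4 nM, JAK2 0.2 nM, JAK3 0.3 nM, TYK2 2 nM) and 50 μM peptide reacted for 100 minutes, followed by ADP-to-luminescence detection; IC50 by 4-parameter fit.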

[4] = target: T2, human TYK2 kinase domain (JH1) (Homo sapiens, UniProt P29597); experiment: JH1 biochemical assay for TYK2 (ADP-Glo kinase assay, recombinant JH1 catalytic domain, JAK3-974 peptide, 10 μM ATP)
T2 construct: recombinantly generated catalytic kinase (also known as JH1) domain of human JAK1, JAK2, JAK3 and TYK2
T2 sequence (P29597 897-1176 limits assumed): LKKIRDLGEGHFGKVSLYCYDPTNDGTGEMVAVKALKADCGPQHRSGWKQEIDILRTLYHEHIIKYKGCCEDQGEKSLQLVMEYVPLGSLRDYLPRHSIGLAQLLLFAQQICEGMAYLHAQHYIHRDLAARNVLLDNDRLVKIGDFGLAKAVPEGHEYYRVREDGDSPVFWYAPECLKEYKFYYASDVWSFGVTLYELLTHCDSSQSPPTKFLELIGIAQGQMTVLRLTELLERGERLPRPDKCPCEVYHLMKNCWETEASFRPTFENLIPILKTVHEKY
Method in brief: as §1

[5] = target: T3, human JAK2 kinase domain (JH1) (Homo sapiens, UniProt O60674); experiment: JH1 biochemical assay for JAK2 (ADP-Glo kinase assay, recombinant JH1 catalytic domain, JAK3-974 peptide, 15 μM ATP)
T3 construct: recombinantly generated catalytic kinase (also known as JH1) domain of human JAK1, JAK2, JAK3 and TYK2
T3 sequence (O60674 849-1124 limits assumed): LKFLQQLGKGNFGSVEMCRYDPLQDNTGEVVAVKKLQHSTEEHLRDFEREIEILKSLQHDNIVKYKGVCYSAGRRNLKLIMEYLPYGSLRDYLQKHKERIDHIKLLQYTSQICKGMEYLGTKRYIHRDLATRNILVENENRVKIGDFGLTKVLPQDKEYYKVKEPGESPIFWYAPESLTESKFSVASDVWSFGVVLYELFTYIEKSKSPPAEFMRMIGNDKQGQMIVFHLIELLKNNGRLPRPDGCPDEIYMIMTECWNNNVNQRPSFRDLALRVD
Method in brief: as §1

[6] = target: T4, human JAK3 kinase domain (JH1) (Homo sapiens, UniProt P52333); experiment: JH1 biochemical assay for JAK3 (ADP-Glo kinase assay, recombinant JH1 catalytic domain, JAK3-974 peptide, 4 μM ATP)
T4 construct: recombinantly generated catalytic kinase (also known as JH1) domain of human JAK1, JAK2, JAK3 and TYK2
T4 sequence (P52333 822-1111 limits assumed): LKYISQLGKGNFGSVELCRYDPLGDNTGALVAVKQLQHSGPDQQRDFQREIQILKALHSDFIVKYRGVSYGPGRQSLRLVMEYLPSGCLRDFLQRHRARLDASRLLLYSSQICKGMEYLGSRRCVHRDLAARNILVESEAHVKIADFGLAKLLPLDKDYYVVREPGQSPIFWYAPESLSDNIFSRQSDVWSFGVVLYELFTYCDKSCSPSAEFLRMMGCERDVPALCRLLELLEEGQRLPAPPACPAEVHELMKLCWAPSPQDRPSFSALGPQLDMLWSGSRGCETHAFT
Method in brief: as §1

[7] = target: JAK1 kinase activity on STAT3 in TF1 cells (Homo sapiens, UniProt P23458); experiment: pSTAT3 cell assay (MSD; TF1 cells, 30 ng/mL IL-6 stimulation); assay type: cell-based; conditions: 30 ng/mL IL-6, 15 minutes
JAK1 kinase activity on STAT3 in TF1 cells, sequence (P23458 whole entry): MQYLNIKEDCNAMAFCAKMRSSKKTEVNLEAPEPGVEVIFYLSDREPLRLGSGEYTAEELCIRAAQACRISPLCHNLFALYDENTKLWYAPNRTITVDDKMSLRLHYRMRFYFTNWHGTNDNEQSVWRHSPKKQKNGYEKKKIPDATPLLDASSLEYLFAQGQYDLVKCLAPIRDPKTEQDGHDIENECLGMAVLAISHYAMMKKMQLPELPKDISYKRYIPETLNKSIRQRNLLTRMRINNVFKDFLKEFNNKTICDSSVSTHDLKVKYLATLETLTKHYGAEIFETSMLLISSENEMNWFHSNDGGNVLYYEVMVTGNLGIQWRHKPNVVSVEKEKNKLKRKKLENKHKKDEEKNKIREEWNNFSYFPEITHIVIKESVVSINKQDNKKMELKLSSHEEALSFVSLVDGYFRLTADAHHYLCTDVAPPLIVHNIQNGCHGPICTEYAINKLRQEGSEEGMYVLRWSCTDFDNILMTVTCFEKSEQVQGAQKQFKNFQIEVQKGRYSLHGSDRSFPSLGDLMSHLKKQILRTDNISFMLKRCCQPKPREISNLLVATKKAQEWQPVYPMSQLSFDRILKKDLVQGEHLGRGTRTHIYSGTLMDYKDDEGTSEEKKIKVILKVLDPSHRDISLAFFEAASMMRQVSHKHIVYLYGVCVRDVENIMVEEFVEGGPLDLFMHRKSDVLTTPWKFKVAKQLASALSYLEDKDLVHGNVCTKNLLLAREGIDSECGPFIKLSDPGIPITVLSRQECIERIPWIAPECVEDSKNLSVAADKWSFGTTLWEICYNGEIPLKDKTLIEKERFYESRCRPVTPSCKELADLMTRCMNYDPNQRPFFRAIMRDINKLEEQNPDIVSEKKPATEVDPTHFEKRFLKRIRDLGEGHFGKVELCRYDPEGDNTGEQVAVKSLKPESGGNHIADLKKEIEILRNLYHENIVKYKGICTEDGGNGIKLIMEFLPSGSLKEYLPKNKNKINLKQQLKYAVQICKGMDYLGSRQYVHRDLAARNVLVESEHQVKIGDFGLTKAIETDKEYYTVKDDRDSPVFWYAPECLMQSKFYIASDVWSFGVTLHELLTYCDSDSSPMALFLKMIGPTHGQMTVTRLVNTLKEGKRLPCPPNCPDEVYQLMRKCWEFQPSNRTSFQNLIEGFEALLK
Method in brief: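 Serum-starved TF1 cells were pretreated with compound for 1 hour (10-point, four-fold dilutions from 10 μM), then stimulated with IL-6 for 15 minutes. Lysates were assayed for pSTAT3 by MSD with anti-STAT3 antibodies; IC50 came from a 4-parameter logistic fit of normalized percent activity.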

Compound	IC50 [1] [nM]	IC50 [2] [nM]	IC50 ([3]; JAK1 JH1, ADP-Glo) [nM]	IC50 ([4]; TYK2 JH1, ADP-Glo) [nM]	IC50 ([5]; JAK2 JH1, ADP-Glo) [nM]	IC50 ([6]; JAK3 JH1, ADP-Glo) [nM]	IC50 [7] [nM]	IC50 ([3]; JH1 kinase domain, ADP-Glo) [nM]	IC50 ([4]; JH1 kinase domain, ADP-Glo) [nM]	IC50 ([5]; JH1 kinase domain, ADP-Glo) [nM]	IC50 ([6]; JH1 kinase domain, ADP-Glo) [nM]
C[C@@H]1CN(c2nc(-c3cnn(C4CC5(COC5)C4)c3)cn3nccc23)C(=O)[C@]1(C#N)C1CC1 [Example 289, (3R,4S)-1-(6-(1-(2-oxaspiro[3.3]heptan-6-yl)-1H-pyrazol-4-yl)pyrazolo[1,5-a]pyrazin-4-yl)-3-cyclopropyl-4-methyl-2-oxopyrrolidine-3-carbonitrile]	< 100	5 to 20	< 100	< 5	< 100	< 100	< 100	–	–	–	–
C[C@@H]1CN(c2ccnn3cc(-c4cn(C)cn4)cc23)C(=O)[C@]1(C#N)C1CC1 [Example 111, (3R,4S)-3-cyclopropyl-4-methyl-1-(6-(1-methyl-1H-imidazol-4-yl)pyrrolo[1,2-b]pyridazin-4-yl)-2-oxopyrrolidine-3-carbonitrile trifluoroacetate]	> 10000	> 100	–	–	–	–	> 10000	100 to 1000	< 5	100 to 1000	100 to 1000
C[C@@H]1CN(c2nc(-c3cnn(C4CC5(COC5)C4)c3)cn3ncc(F)c23)C(=O)[C@]1(C#N)C1CC1 [Example 298, (3R,4S)-1-(6-(1-(2-oxaspiro[3.3]heptan-6-yl)-1H-pyrazol-4-yl)-3-fluoropyrazolo[1,5-a]pyrazin-4-yl)-3-cyclopropyl-4-methyl-2-oxopyrrolidine-3-carbonitrile]	100 to 1000	50 to 100	< 100	< 5	< 100	< 100	100 to 1000	–	–	–	–
C[C@@H]1CN(c2ccnn3cc(-c4cnc5[nH]ccc5c4)cc23)C(=O)[C@]1(C#N)C1CC1 [Example 64, (3R,4S)-1-(6-(1H-pyrrolo[2,3-b]pyridin-5-yl)pyrrolo[1,2-b]pyridazin-4-yl)-3-cyclopropyl-4-methyl-2-oxopyrrolidine-3-carbonitrile]	5000 to 10000	50 to 100	–	–	–	–	1000 to 5000	100 to 1000	5 to 20	100 to 1000	100 to 1000
COc1cccc(-c2cn3nccc3c(N3C[C@@H](C)[C@@](C#N)(C4CC4)C3=O)n2)n1 [Example 193, (3R,4S)-3-cyclopropyl-1-(6-(6-methoxypyridin-2-yl)pyrazolo[1,5-a]pyrazin-4-yl)-4-methyl-2-oxopyrrolidine-3-carbonitrile]	> 10000	> 100	–	–	–	–	> 10000	100 to 1000	5 to 20	> 10000	> 10000
C[C@@H]1CN(c2ccnn3cc(-c4cccc5cncn45)cc23)C(=O)[C@]1(C#N)C1CC1 [Example 128, (3R,4S)-3-cyclopropyl-1-(6-(imidazo[1,5-a]pyridin-5-yl)pyrrolo[1,2-b]pyridazin-4-yl)-4-methyl-2-oxopyrrolidine-3-carbonitrile trifluoroacetate]	> 10000	> 100	–	–	–	–	> 10000	100 to 1000	5 to 20	1000 to 5000	100 to 1000
C[C@@H]1CN(c2ccnn3cc(-c4cn(C)nn4)cc23)C(=O)[C@]1(C#N)C1CC1 [Example 112, (3R,4S)-3-cyclopropyl-4-methyl-1-(6-(1-methyl-1H-1,2,3-triazol-4-yl)pyrrolo[1,2-b]pyridazin-4-yl)-2-oxopyrrolidine-3-carbonitrile trifluoroacetate]	> 10000	> 100	–	–	–	–	> 10000	100 to 1000	5 to 20	100 to 1000	100 to 1000
